According to patent publication US9090610B2, “Fluoroalkyl-substituted pyrazolopyridines and use thereof” (BAYER INTELLECTUAL PROPERTY GMBH, priority 2011, dated 2015):

Tests used:
[1] = system: recombinant guanylate cyclase reporter cell line; assay: Effect on a recombinant guanylate cyclase reporter cell line; format: cell-based; conditions: recombinant guanylate cyclase reporter cell line (Wunder et al. 2005); read-out: MEC (minimum effective concentration)
Protocol: B-2. Effect on a Recombinant Guanylate Cyclase Reporter Cell Line
The cellular activity of the compounds according to the invention is determined using a recombinant guanylate cyclase reporter cell line, as described in F. Wunder et al., Anal. Biochem. 339, 104-112 (2005).

rabbit aorta rings = assay: Vasorelaxant action in vitro (phenylephrine-contracted rabbit aortic rings); conditions: Oryctolagus cuniculus, phenylephrine-induced contraction, organ bath 37° C., 0.1% DMSO, read-out: IC50 (concentration needed to reduce the magnitude of the control contraction by 50%)
Protocol: B-1. Vasorelaxant Action In Vitro
Rabbits are stunned by a blow to the neck and exsanguinated. The aorta is removed, freed from adhering tissue and divided into rings of a width of 1.5 mm. The rings are placed individually under an initial tension in 5 ml organ baths with Krebs-Henseleit solution which is at 37° C., is gassed with carbogen and has the following composition (in each case mM): sodium chloride: 119; potassium chloride: 4.8; calcium chloride dihydrate: 1; magnesium sulfate heptahydrate: 1.4; potassium dihydrogenphosphate: 1.2; sodium bicarbonate: 25; glucose: 10. The contractile force is determined with Statham UC2 cells, amplified and digitalized using A/D transducers (DAS-1802 HC, Keithley Instruments Munich), and recorded in parallel on linear recorders. To obtain a contraction, phenylephrine is added to the bath cumulatively in increasing concentration. After several control cycles, the substance to be investigated is added in each further run in increasing dosage in each case, and the height of the contraction achieved is compared with the height of the contraction reached in the last preceding run. This is used to calculate the concentration needed to reduce the magnitude of the control value by 50% ([…]). The standard administration volume is 5 μl; the DMSO content in the bath solution corresponds to 0.1%.

Compound | minimal effective concentration [1] [µM] | IC50 (rabbit aorta rings) [nM]
CC1(C)C(=O)Nc2nc(-c3nn(CCC(F)(F)C(F)(F)F)c4ncccc34)nnc21 [Example 1, 7,7-Dimethyl-3-[1-(3,3,4,4,4-pentafluorobutyl)-1H-pyrazolo[3,4-b]pyridin-3-yl]-5,7-dihydro-6H-pyrrolo[2,3-e][1,2,4]triazin-6-one] | 0.3 | 263
CC1(C)C(=O)Nc2nc(-c3nn(CCC(F)(F)C(F)(F)F)c4ncc(F)cc34)nnc21 [Example 2, 3-[5-Fluoro-1-(3,3,4,4,4-pentafluorobutyl)-1H-pyrazolo[3,4-b]pyridin-3-yl]-7,7-dimethyl-5,7-dihydro-6H-pyrrolo[2,3-e][1,2,4]triazin-6-one] | 0.1 | 129
CC1(C)C(=O)Nc2nc(-c3nn(CCC(F)(F)C(F)(F)F)c4ncccc34)ncc21 [Example 3, 5,5-Dimethyl-2-[1-(3,3,4,4,4-pentafluorobutyl)-1H-pyrazolo[3,4-b]pyridin-3-yl]-5,7-dihydro-6H-pyrrolo[2,3-d]pyrimidin-6-one] | 0.03 | 46
CC1(C)C(=O)Nc2nc(-c3nn(CCC(F)(F)C(F)(F)F)c4ncc(F)cc34)ncc21 [Example 4, 2-[5-Fluoro-1-(3,3,4,4,4-pentafluorobutyl)-1H-pyrazolo[3,4-b]pyridin-3-yl]-5,5-dimethyl-5,7-dihydro-6H-pyrrolo[2,3-d]pyrimidin-6-one] | 0.03 | 101
CC1(C)C(=O)Nc2nc(-c3nn(CC4CCCC4)c4ncc(F)cc34)ncc21 [Example 5, 2-[1-(Cyclopentylmethyl)-5-fluoro-1H-pyrazolo[3,4-b]pyridin-3-yl]-5,5-dimethyl-5,7-dihydro-6H-pyrrolo[2,3-d]pyrimidin-6-one] | 0.1 | 23
CC1(C)C(=O)Nc2nc(-c3nn(CC4CCCC4)c4ncc(F)cc34)nnc21 [Example 6, 3-[1-(Cyclopentylmethyl)-5-fluoro-1H-pyrazolo[3,4-b]pyridin-3-yl]-7,7-dimethyl-5,7-dihydro-6H-pyrrolo[2,3-e][1,2,4]triazin-6-one] | 0.1 | 102
CC1(C)C(=O)Nc2nc(-c3nn(CCC(F)(F)C(F)F)c4ncc(F)cc34)nnc21 [Example 7, 3-[5-Fluoro-1-(3,3,4,4-tetrafluorobutyl)-1H-pyrazolo[3,4-b]pyridin-3-yl]-7,7-dimethyl-5,7-dihydro-6H-pyrrolo[2,3-e][1,2,4]triazin-6-one] | 0.3 | 
CC1(C)C(=O)Nc2nc(-c3nn(CC4CC(F)(F)C4)c4ncc(F)cc34)nnc21 [Example 8, 3-{1-[(3,3-Difluorocyclobutyl)methyl]-5-fluoro-1H-pyrazolo[3,4-b]pyridin-3-yl}-7,7-dimethyl-5,7-dihydro-6H-pyrrolo[2,3-e][1,2,4]triazin-6-one] | 3 | 
